# Laboratory results published in the supplement of paper PMC10307832.
# Experiments:
# Experiment in all cases: relative viability (nuclei count vs DMSO), 5 days (fraction); higher = more cells survive
# LCLC-97TM1 = system: LCLC-97TM1
# Outline: (§1)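 Lung cancer cell lines were seeded in 1536-well plates and dosed by pin tool the next day, with either a single drug or a fixed anchor-drug dose combined with five library-drug doses (not always all listed) spaced in √10 steps. Five days later, one step fixed the cells and stained their nuclei (final 0.05% Triton X-100, 1% formaldehyde, 1 ug/ml Hoechst), and nuclei were counted on 4× images. Relative viability is the nuclei count in treated wells divided by the count in vehicle wells, and each value is the median of duplicate plates.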
# H3255 = system: H3255
# Outline: as §1
# NCI-H522 = system: NCI-H522
# Outline: as §1
# NCI-H3122 = system: NCI-H3122
# Outline: as §1
# NCI-H441 = system: NCI-H441
# Outline: as §1
# EKVX = system: EKVX
# Outline: as §1
# NCI-H1355 = system: NCI-H1355
# Outline: as §1
# HOP-62 = system: HOP-62
# Outline: as §1
# EPLC-272H = system: EPLC-272H
# Outline: as §1
# HCC-827 = system: HCC-827
# Outline: as §1
# NCI-H1993 = system: NCI-H1993
# Outline: as §1
# SW 1573 = system: SW 1573
# Outline: as §1
# LU99A = system: LU99A
# Outline: as §1
# NCI-H2405 = system: NCI-H2405
# Outline: as §1
# NCI-H2170 = system: NCI-H2170
# Outline: as §1
# LXF-289 = system: LXF-289
# Outline: as §1
# SK-LU-1 = system: SK-LU-1
# Outline: as §1
# NCI-H2228 = system: NCI-H2228
# Outline: as §1
# PC-3 [JPC-3] = system: PC-3 [JPC-3]
# Outline: as §1
# LK-2 = system: LK-2
# Outline: as §1
# ChaGo-K-1 = system: ChaGo-K-1
# Outline: as §1
# UMC-11 = system: UMC-11
# Outline: as §1
# NCI-H1650 = system: NCI-H1650
# Outline: as §1
structure (smiles),measurement,setting,value
CN1CCN(CCOc2cc(OC3CCOCC3)c3c(Nc4c(Cl)ccc5c4OCO5)ncnc3c2)CC1 [Saracatinib] + COc1cccc2cc(-c3nc([C@H]4CC[C@H](C(=O)O)CC4)n4ncnc(N)c34)[nH]c12 [OSI-027] (partner 0.5 µM),relative viability,LCLC-97TM1; first compound 0.02 µM,0.696
same,relative viability,LCLC-97TM1; first compound 0.2 µM,0.221
same,relative viability,LCLC-97TM1; first compound 0.6325 µM,0.7
same,relative viability,LCLC-97TM1; first compound 2 µM,0.505
same,relative viability,H3255; first compound 0.02 µM,0.587
same,relative viability,H3255; first compound 0.2 µM,0.589
same,relative viability,H3255; first compound 0.6325 µM,0.542
same,relative viability,H3255; first compound 2 µM,0.284
same,relative viability,NCI-H522; first compound 0.02 µM,0.703
same,relative viability,NCI-H522; first compound 0.6325 µM,0.692
same,relative viability,NCI-H522; first compound 2 µM,0.683
same,relative viability,NCI-H3122; first compound 0.02 µM,0.957
same,relative viability,NCI-H3122; first compound 0.2 µM,0.357
same,relative viability,NCI-H3122; first compound 0.6325 µM,0.968
same,relative viability,NCI-H3122; first compound 2 µM,0.718
same,relative viability,NCI-H441; first compound 0.02 µM,0.614
same,relative viability,NCI-H441; first compound 0.2 µM,0.532
same,relative viability,NCI-H441; first compound 0.6325 µM,0.875
same,relative viability,NCI-H441; first compound 2 µM,0.623
same,relative viability,EKVX; first compound 0.02 µM,0.679
same,relative viability,EKVX; first compound 0.6325 µM,0.746
same,relative viability,EKVX; first compound 2 µM,0.456
same,relative viability,NCI-H1355; first compound 0.02 µM,0.482
same,relative viability,NCI-H1355; first compound 0.2 µM,0.379
same,relative viability,NCI-H1355; first compound 0.6325 µM,0.427
same,relative viability,NCI-H1355; first compound 2 µM,0.323
same,relative viability,HOP-62; first compound 0.02 µM,0.836
same,relative viability,HOP-62; first compound 0.2 µM,0.796
same,relative viability,HOP-62; first compound 0.6325 µM,0.794
same,relative viability,HOP-62; first compound 2 µM,0.773
same,relative viability,EPLC-272H; first compound 0.02 µM,0.304
same,relative viability,EPLC-272H; first compound 0.2 µM,0.27
same,relative viability,EPLC-272H; first compound 0.6325 µM,0.348
same,relative viability,EPLC-272H; first compound 2 µM,0.278
same,relative viability,HCC-827; first compound 0.02 µM,0.791
same,relative viability,HCC-827; first compound 0.2 µM,0.564
same,relative viability,HCC-827; first compound 0.6325 µM,0.259
same,relative viability,HCC-827; first compound 2 µM,0.122
same,relative viability,NCI-H1993; first compound 0.02 µM,0.54
same,relative viability,NCI-H1993; first compound 0.2 µM,0.508
same,relative viability,NCI-H1993; first compound 0.6325 µM,0.497
same,relative viability,NCI-H1993; first compound 2 µM,0.525
same,relative viability,SW 1573; first compound 0.02 µM,0.624
same,relative viability,SW 1573; first compound 0.2 µM,0.55
same,relative viability,SW 1573; first compound 0.6325 µM,0.667
same,relative viability,SW 1573; first compound 2 µM,0.456
same,relative viability,LU99A; first compound 0.02 µM,0.317
same,relative viability,LU99A; first compound 0.2 µM,0.283
same,relative viability,LU99A; first compound 0.6325 µM,0.303
same,relative viability,LU99A; first compound 2 µM,0.277
same,relative viability,NCI-H2405; first compound 0.02 µM,0.647
same,relative viability,NCI-H2405; first compound 0.2 µM,0.62
same,relative viability,NCI-H2405; first compound 0.6325 µM,0.649
same,relative viability,NCI-H2405; first compound 2 µM,0.38
same,relative viability,NCI-H2170; first compound 0.02 µM,0.694
same,relative viability,NCI-H2170; first compound 0.2 µM,0.459
same,relative viability,NCI-H2170; first compound 0.6325 µM,0.811
same,relative viability,NCI-H2170; first compound 2 µM,0.53
same,relative viability,LXF-289; first compound 0.02 µM,0.765
same,relative viability,LXF-289; first compound 0.2 µM,0.735
same,relative viability,LXF-289; first compound 0.6325 µM,0.744
same,relative viability,LXF-289; first compound 2 µM,0.677
same,relative viability,SK-LU-1; first compound 0.02 µM,0.33
same,relative viability,SK-LU-1; first compound 0.2 µM,0.28
same,relative viability,SK-LU-1; first compound 0.6325 µM,0.245
same,relative viability,SK-LU-1; first compound 2 µM,0.172
same,relative viability,NCI-H2228; first compound 0.02 µM,0.719
same,relative viability,NCI-H2228; first compound 0.2 µM,0.343
same,relative viability,NCI-H2228; first compound 0.6325 µM,0.529
same,relative viability,NCI-H2228; first compound 2 µM,0.381
same,relative viability,PC-3 [JPC-3]; first compound 0.02 µM,0.793
same,relative viability,PC-3 [JPC-3]; first compound 0.2 µM,0.718
same,relative viability,PC-3 [JPC-3]; first compound 0.6325 µM,0.61
same,relative viability,PC-3 [JPC-3]; first compound 2 µM,0.436
same,relative viability,LK-2; first compound 0.02 µM,0.218
same,relative viability,LK-2; first compound 0.2 µM,0.165
same,relative viability,LK-2; first compound 0.6325 µM,0.161
same,relative viability,LK-2; first compound 2 µM,0.151
same,relative viability,ChaGo-K-1; first compound 0.02 µM,0.707
same,relative viability,ChaGo-K-1; first compound 0.2 µM,0.533
same,relative viability,ChaGo-K-1; first compound 0.6325 µM,0.519
same,relative viability,ChaGo-K-1; first compound 2 µM,0.524
same,relative viability,UMC-11; first compound 0.02 µM,0.503
same,relative viability,UMC-11; first compound 0.6325 µM,0.453
same,relative viability,UMC-11; first compound 2 µM,0.339
same,relative viability,NCI-H1650; first compound 0.02 µM,0.611
same,relative viability,NCI-H1650; first compound 0.2 µM,0.396
same,relative viability,NCI-H1650; first compound 0.6325 µM,0.524
same,relative viability,NCI-H1650; first compound 2 µM,0.254
